In patent publication US20210024520A1, “THERAPEUTIC AGENT FOR LCAT DEFICIENCY” (DAIICHI SANKYO COMPANY, LIMITED, priority 2018, published 2021):
Residue numbers refer to the chain shown, from its start.

Legend:
Assay type in all cases: biochemical
mutant LCAT protein P10Q = molecular target: T1, mutant LCAT protein P10Q (Homo sapiens, UniProt P04180, P34Q); test: Measurement of LCAT activity using LCAT mutant protein P10Q (FED), reconstituted HDL with [14C]-cholesterol; settings: compound concentration 1 μM
T1 construct: made in house; host or cells: HEK293 cells (culture supernatant)
T1 sequence (P04180 25-440 P34Q): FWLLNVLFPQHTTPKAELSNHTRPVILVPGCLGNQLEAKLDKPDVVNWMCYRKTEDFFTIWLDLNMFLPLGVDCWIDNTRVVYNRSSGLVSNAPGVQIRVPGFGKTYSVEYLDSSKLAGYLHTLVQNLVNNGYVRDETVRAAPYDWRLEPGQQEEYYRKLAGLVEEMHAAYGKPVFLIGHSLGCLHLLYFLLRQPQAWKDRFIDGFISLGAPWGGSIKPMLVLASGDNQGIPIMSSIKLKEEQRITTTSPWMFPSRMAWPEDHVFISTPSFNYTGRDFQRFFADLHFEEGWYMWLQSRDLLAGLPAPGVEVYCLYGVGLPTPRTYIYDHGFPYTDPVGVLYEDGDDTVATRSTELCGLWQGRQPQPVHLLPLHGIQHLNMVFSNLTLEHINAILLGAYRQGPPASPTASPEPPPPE
Protocol: (§1) Mutant LCAT proteins, reported on gene mutations among patients with familial LCAT deficiency (FLD) and patients with fish eye disease (FED), were expressed in HEK293 cells, and the mutant LCAT proteins were purified from the culture supernatant and used as enzyme sources. HDL was reconstituted with phosphatidylcholine, [14C]-labelled cholesterol, and apolipoprotein A-I and used as a reactive substrate. The test compound was prepared by being dissolved in dimethyl sulfoxide. To a mixture of 7 μL of the mutant LCAT protein solution (concentration 0.034 μg/μL), 1 μL each of PBS containing 10% bovine serum albumin or mercaptoethanol, and 40 μL of the above-mentioned reconstituted HDL was further added 1 μL of the test compound (final concentration 1 or 10 μM) to prepare 50 μL of a mixture in total. The mixture was incubated at 37° C. for 1 hour and subsequently a mixed solution of hexane and isopropanol (mixing ratio=3:2) was added to stop the reaction. […] Radioactivity of a portion corresponding to the cholesterol ester separated on each lane by the development on the silica gel thin-layer plate was measured using an imaging analyzer BAS-2500 (manufactured by FUJIFILM Corporation). […] Additionally, the presence and absence of significant differences in both cases were statistically evaluated using t-test or Dunnett multiple comparison test.

[1] = molecular target: T2, mutant LCAT protein T1231 (Homo sapiens, UniProt P04180, T147I); test: Measurement of LCAT activity using LCAT mutant protein T1231 (FED), reconstituted HDL with [14C]-cholesterol; settings: compound concentration 1 μM
T2 construct: made in house; host or cells: HEK293 cells (culture supernatant)
T2 sequence (P04180 25-440 T147I): T1 sequence (P04180 25-440 P34Q) with Q10P, T123I
Protocol: as §1

[2] = molecular target: T3, mutant LCAT protein N131D (Homo sapiens, UniProt P04180, N155D); test: Measurement of LCAT activity using LCAT mutant protein N131D (FED), reconstituted HDL with [14C]-cholesterol; settings: compound concentration 1 μM
T3 construct: made in house; host or cells: HEK293 cells (culture supernatant)
T3 sequence (P04180 25-440 N155D): T1 sequence (P04180 25-440 P34Q) with Q10P, N131D
Protocol: as §1

[3] = molecular target: T4, mutant LCAT protein Y156N (Homo sapiens, UniProt P04180, Y180N); test: Measurement of LCAT activity using LCAT mutant protein Y156N (FLD), reconstituted HDL with [14C]-cholesterol; settings: for Measured value of LCAT activity Mean ± standard error (n = 6): 37° C. 1 hour, radioactivity of cholesterol ester
T4 construct: made in house; host or cells: HEK293 cells (culture supernatant)
T4 sequence (P04180 25-440 Y180N): T1 sequence (P04180 25-440 P34Q) with Q10P, Y156N
Protocol: (§2) Mutant LCAT proteins, reported on gene mutations among patients with familial LCAT deficiency (FLD) and patients with fish eye disease (FED), were expressed in HEK293 cells, and the mutant LCAT proteins were purified from the culture supernatant and used as enzyme sources. HDL was reconstituted with phosphatidylcholine, [14C]-labelled cholesterol, and apolipoprotein A-I and used as a reactive substrate. The test compound was prepared by being dissolved in dimethyl sulfoxide. To a mixture of 7 μL of the mutant LCAT protein solution (concentration 0.034 μg/μL), 1 μL each of PBS containing 10% bovine serum albumin or mercaptoethanol, and 40 μL of the above-mentioned reconstituted HDL was further added 1 μL of the test compound (final concentration 1 or 10 μM) to prepare 50 μL of a mixture in total. The mixture was incubated at 37° C. for 1 hour and subsequently a mixed solution of hexane and isopropanol (mixing ratio=3:2) was added to stop the reaction. Water was added and stirred, and subsequently the hexane layer was collected and concentrated to dryness. A chloroform solution (concentration 10 mg/mL) was added thereto, spotted on a silica gel thin-layer plate and developed with a mixed solution of hexane, diethyl ether and ethyl acetate (mixing ratio=85:15:2). Radioactivity of a portion corresponding to the cholesterol ester separated on each lane by the development on the silica gel thin-layer plate was measured using an imaging analyzer BAS-2500 (manufactured by FUJIFILM Corporation). Radioactivities with and without the test compound were compared to calculate the ratio of LCAT activity with the addition of the test compound to that without the addition of the test compound for each of the mutant proteins. Additionally, the presence and absence of significant differences in both cases were statistically evaluated using t-test or Dunnett multiple comparison test.

[4] = molecular target: T5, mutant LCAT protein N228K (Homo sapiens, UniProt P04180, N252K); test: Measurement of LCAT activity using LCAT mutant protein N228K (FLD), reconstituted HDL with [14C]-cholesterol; settings: for Measured value of LCAT activity Mean ± standard error (n = 6): 37° C. 1 hour, radioactivity of cholesterol ester
T5 construct: made in house; host or cells: HEK293 cells (culture supernatant)
T5 sequence (P04180 25-440 N252K): T1 sequence (P04180 25-440 P34Q) with Q10P, N228K
Protocol: as §2

[5] = 37° C. 1 hour, radioactivity of cholesterol ester

## O=C1Nc2[nH]nc(C3CCN(c4cnc(C(F)(F)F)nc4)CC3)c2[C@@H](C(F)(F)F)[C@H]1O [test compound, (+)-Cis-5-hydroxy-4-(trifluoromethyl)-3-{1-[2-(trifluoromethyl)pyrimidin-5-yl]piperidin-4-yl}-1,4,5,7-tetrahydro-6H-pyrazolo[3,4-b]pyridin-6-one]
Mutant LCAT protein P10Q
  LCAT activity ratio of case of compound addition to no-addition control: 3.83
Mutant LCAT protein P10Q; [5]
  Measured value of LCAT activity Mean ± standard error (n = 6): 2908.25 ± 429.42
[1]
  LCAT activity ratio of case of compound addition to no-addition control: 3.75
[1]; [5]
  Measured value of LCAT activity Mean ± standard error (n = 6): 3263.11 ± 521.27
[2]
  LCAT activity ratio of case of compound addition to no-addition control: 3.19
[2]; [5]
  Measured value of LCAT activity Mean ± standard error (n = 6): 1308.38 ± 259.22
[3]; compound concentration 1 μM
  LCAT activity ratio of case of compound addition to no-addition control: 1.83
  Measured value of LCAT activity Mean ± standard error (n = 6): 447.36 ± 47.06
[3]; compound concentration 10 μM
  LCAT activity ratio of case of compound addition to no-addition control: 1.82
  Measured value of LCAT activity Mean ± standard error (n = 6): 443.20 ± 36.83
[4]; compound concentration 1 μM
  LCAT activity ratio of case of compound addition to no-addition control: 2.80
  Measured value of LCAT activity Mean ± standard error (n = 6): 634.17 ± 66.62
[4]; compound concentration 10 μM
  LCAT activity ratio of case of compound addition to no-addition control: 2.76
  Measured value of LCAT activity Mean ± standard error (n = 6): 625.22 ± 41.03
